Assay results as given in publication PMC6218249 (Bioorganic & medicinal chemistry letters, 2018).
In brackets after ≈: the same amount, converted by molar mass.

What was measured:
[1] = In vivo pharmacokinetics in C57BL/6 mice; conditions: C57BL/6, mouse, plasma, other: intravenous and oral, 3 mg/kg
physchem = conditions: pH 7.4

| half-life [1] [h] | solubility (physchem) [µM] | Structure (SMILES) | PAMPA (x10^−6 cm/s) (PAMPA permeability) |
| --- | --- | --- | --- |
|  |  | CC(C)(N)c1ccc(-c2cnc3c(-c4ccc(S(N)(=O)=O)c5ccccc45)cnn3c2)cc1 [Compound 20] | 9.4 x10^−6 cm/s |
|  |  | CC(C)(CN1CCCCC1)Oc1ccc(-c2cnc3c(-c4ccc(S(N)(=O)=O)c5ccccc45)cnn3c2)cc1 [Compound 17] | 1920.5 x10^−6 cm/s |
| 3 to 4 | 14 (≈ 6.97 µg/mL) | CC(c1ccc(-c2cnc3c(-c4ccc(S(N)(=O)=O)c5ccccc45)cnn3c2)cc1)N1CCCC1 (centres unmarked) [Compound 23] | 1116.0 x10^−6 cm/s |
|  |  | NS(=O)(=O)c1ccc(-c2cnn3cc(-c4ccc(OCCN5CCCC5)cc4)cnc23)c2ccccc12 [Compound 18] | 317 x10^−6 cm/s |
|  |  | NS(=O)(=O)c1ccc(-c2cnn3cc(-c4ccc(OCCN5CCCCC5)nc4)cnc23)c2ccccc12 [Compound 14] | 364.7 x10^−6 cm/s |
|  |  | CN(C)CCOc1ccc(-c2cnc3c(-c4ccc(S(N)(=O)=O)c5ccccc45)cnn3c2)cn1 [Compound 13] | 8.8 x10^−6 cm/s |
|  |  | NS(=O)(=O)c1ccc(-c2cnn3cc(-c4ccc(CN5CCCC5)cc4)cnc23)c2ccccc12 [Compound 22] | 467 x10^−6 cm/s |
|  |  | NS(=O)(=O)c1ccc(-c2cnn3cc(-c4ccc(C5CCNCC5)cc4)cnc23)c2ccccc12 [Compound 15] | 78.6 x10^−6 cm/s |
|  |  | NS(=O)(=O)c1ccc(-c2cnn3cc(-c4ccc(N5CCNCC5)nc4)cnc23)c2ccccc12 [Compound 12] | 8.3 x10^−6 cm/s |
